Patent publication US20240197888A1, “SOS1 PROTEIN DEGRADERS, PHARMACEUTICAL COMPOSITIONS THEREOF, AND THEIR THERAPEUTIC APPLICATIONS” (BioTheryX, Inc., priority 2021, published 2024)

Columns and labels:
Type in all cases: cell-based
H358 (G12C) cells = test: Cell viability assay (CELLTITER-GLO), H358 cells; conditions: Homo sapiens, NCI-H358, 72 h, Inhibition of cancerous cells, 3 days incubation, luminescence
Procedure: (§1) AsPC-1, H358, and SW48 cells were cultured in RPMI 1640 media supplemented with 10% fetal bovine serum, streptomycin, and penicillin. Lovo and SW480 cells were cultured in DMEM media supplemented with 10% fetal bovine serum, streptomycin, and penicillin. The cell lines were plated in their respective medium supplemented with 2.5% fetal bovine serum, streptomycin, and penicillin. All cell lines were plated in white walled 96-well plates at 2,000 cells/well or 384-well plates at 500 cells/well, except Lovo, which were plated at 4,000 or 1,000 cells/well, respectively. The cells were incubated in DMSO (control) or a compound for 3 days at 37° C. under 5% CO2. A CELLTITER-GLO® reagent ([…] was then added to each well. After a 10 min incubation with shaking, luminescence was measured using an ENVISION® multimode plate reader. IC50 values are summarized in Table 1.

SW48 (wt) cells = test: Cell viability assay (CELLTITER-GLO), SW48 cells; conditions: Homo sapiens, 72 h, Inhibition of cancerous cells, 3 days incubation, luminescence
Procedure: as §1

SW480 (G12V) cells = test: Cell viability assay (CELLTITER-GLO), SW480 cells; conditions: Homo sapiens, 72 h, Inhibition of cancerous cells, 3 days incubation, luminescence
Procedure: as §1

Lovo (G13D) cells = test: Cell viability assay (CELLTITER-GLO), Lovo cells; conditions: Homo sapiens, 72 h, Inhibition of cancerous cells, 3 days incubation, luminescence
Procedure: as §1

SOS1 = molecular target: T1, SOS1 (Homo sapiens, UniProt Q07889); test: Protein degradation assay (western blot) in MV-4-11 cells; conditions: 6 h; for Degradation 3 μM (SOS1 protein, % degradation relative to DMSO control): compound at 3 μM; for Degradation 10 μM (SOS1 protein, % degradation relative to DMSO control): compound at 10 μM
T1 construct: Whole cell extracts were prepared using an immunoprecipitation (IP) lysis buffer; endogenous in cells; host or cells: MV-4-11
T1 sequence (Q07889 1-1333): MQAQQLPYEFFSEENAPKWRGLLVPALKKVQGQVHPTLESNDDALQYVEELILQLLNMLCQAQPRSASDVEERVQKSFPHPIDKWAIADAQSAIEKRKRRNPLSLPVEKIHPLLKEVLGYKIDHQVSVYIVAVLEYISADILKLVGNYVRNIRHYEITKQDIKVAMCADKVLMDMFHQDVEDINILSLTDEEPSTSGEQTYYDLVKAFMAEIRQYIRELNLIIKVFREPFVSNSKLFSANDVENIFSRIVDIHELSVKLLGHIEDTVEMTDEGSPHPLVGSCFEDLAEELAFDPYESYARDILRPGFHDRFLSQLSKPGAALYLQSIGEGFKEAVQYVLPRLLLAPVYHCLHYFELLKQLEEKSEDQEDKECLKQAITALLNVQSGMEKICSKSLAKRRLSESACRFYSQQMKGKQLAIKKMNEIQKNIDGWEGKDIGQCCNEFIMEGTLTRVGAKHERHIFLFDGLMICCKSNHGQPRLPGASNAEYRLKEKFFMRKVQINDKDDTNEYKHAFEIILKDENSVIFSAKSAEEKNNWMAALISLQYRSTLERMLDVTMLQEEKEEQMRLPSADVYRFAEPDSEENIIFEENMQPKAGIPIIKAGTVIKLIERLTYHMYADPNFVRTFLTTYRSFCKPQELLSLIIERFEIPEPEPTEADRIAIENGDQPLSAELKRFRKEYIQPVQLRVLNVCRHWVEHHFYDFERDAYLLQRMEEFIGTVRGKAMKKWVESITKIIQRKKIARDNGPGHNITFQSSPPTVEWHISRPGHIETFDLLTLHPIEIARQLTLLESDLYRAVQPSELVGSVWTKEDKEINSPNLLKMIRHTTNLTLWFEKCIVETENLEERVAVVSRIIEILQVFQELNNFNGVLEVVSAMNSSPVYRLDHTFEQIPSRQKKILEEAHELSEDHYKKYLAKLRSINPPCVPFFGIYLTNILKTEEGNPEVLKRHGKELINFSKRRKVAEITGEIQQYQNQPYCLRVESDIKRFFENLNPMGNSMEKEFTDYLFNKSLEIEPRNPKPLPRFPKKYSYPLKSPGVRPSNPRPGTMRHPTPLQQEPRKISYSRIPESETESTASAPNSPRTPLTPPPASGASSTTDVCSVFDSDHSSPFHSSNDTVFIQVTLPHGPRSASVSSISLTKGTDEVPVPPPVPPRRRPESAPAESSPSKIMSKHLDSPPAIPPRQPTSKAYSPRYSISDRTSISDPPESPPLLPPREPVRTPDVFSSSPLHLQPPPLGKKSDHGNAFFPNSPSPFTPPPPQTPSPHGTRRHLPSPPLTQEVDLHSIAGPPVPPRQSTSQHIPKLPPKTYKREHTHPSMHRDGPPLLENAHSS
Procedure: MV-4-11 cells were grown in RPMI 1640 media supplemented with 10% fetal bovine serum, streptomycin, and penicillin. The cells were plated in 24-well plates in the growth media. The cells were then treated with a compound at indicated concentrations for 6 h. Whole cell extracts were prepared using an immunoprecipitation (IP) lysis buffer. Briefly, the cells were washed once in PBS, and the cell pellets were resuspended in the IP lysis buffer and incubated for 15 min on ice. Cell debris was removed by centrifugation and the cleared whole cell lysates were transferred to new tubes for further analysis.
For a western blot analysis, the whole cell protein extracts were separated on 4-12% SDS-polyacrylamide gels, transferred to nitrocellulose, and probed with primary antibodies. The nitrocellulose was subsequently washed and probed with IRDYE® secondary antibodies. The signals were detected using an ODYSSEY® Imaging System. The antibodies used in the assay included anti-SOS1; anti-KRAS; β-actin mouse monoclonal antibody; IRDYE® 680RD goat anti-rabbit antibody; and IRDYE® 800CW goat anti-mouse antibody.
[…] The % degradation values relative to the DMSO control are reported as “A,” “B,” “C,” or “D;” where “A” represents a percentage degradation value of no less than 50%; “B” represents a percentage degradation value of less than 50% and no less than 25%; “C” represents a percentage degradation value of less than 25% and no less than 10%; and “D” represents a percentage degradation value of less than 10%.

AsPC-1 (G12D) cells = test: Cell viability assay (CELLTITER-GLO), AsPC-1 cells; conditions: Homo sapiens, ASPC1, 72 h, Inhibition of cancerous cells, 3 days incubation, luminescence
Procedure: as §1

Compound	IC50 (H358 (G12C) cells) [µM]	IC50 (SW48 (wt) cells) [µM]	IC50 (SW480 (G12V) cells) [µM]	IC50 (Lovo (G13D) cells) [µM]	IC50 (AsPC-1 (G12D) cells) [µM]	Degradation 3 μM (SOS1 protein, % degradation relative to DMSO control) (SOS1)	Degradation 10 μM (SOS1 protein, % degradation relative to DMSO control) (SOS1)
COc1cc2c(N[C@H](C)c3cccc(Br)c3)nc(C)nc2cc1OCCCCCCCN1CCCCC1 [Compound A1, (R)—N-(1-(3-bromophenyl)ethyl)-6-methoxy-2-methyl-7-((7-(piperidin-1-yl)heptyl)oxy)quinazolin-4-amine]	1.1	0.68	0.52	0.63	–	B (a percentage degradation value of less than 50% and no less than 25%)	A (a percentage degradation value of no less than 50%)
CNCc1ccccc1-c1csc([C@@H](C)Nc2nc(C)nc3cc(OCCCCCCC(=O)N4CCCCC4)c(OC)cc23)c1 [Compound A68, (R)-7-((6-Methoxy-2-methyl-4-((1-(4-(2-((methylamino)methyl)phenyl)thiophen-2-yl)ethyl)amino)quinazolin-7-yl)oxy)-1-(piperidin-1-yl)heptan-1-one]	0.65	0.55	0.36	0.36	1.5	–	–
CNCc1ccccc1-c1csc([C@@H](C)Nc2nc(CCCCCCCCN3CCCCC3)nc3cc(OC)c(OC)cc23)c1 [Compound C1, (R)-6,7-Dimethoxy-N-(1-(4-(2-((methylamino)methyl)phenyl)thiophen-2-yl)ethyl)-2-(8-(piperidin-1-yl)octyl)quinazolin-4-amine]	–	–	–	–	–	D (a percentage degradation value of less than 10%)	D (a percentage degradation value of less than 10%)

Further lines, with some results ahead:

IC50 (H358 (G12C) cells) [µM]	IC50 (SW48 (wt) cells) [µM]	IC50 (SW480 (G12V) cells) [µM]	IC50 (Lovo (G13D) cells) [µM]	IC50 (AsPC-1 (G12D) cells) [µM]	Compound	Degradation 3 μM (SOS1 protein, % degradation relative to DMSO control) (SOS1)	Degradation 10 μM (SOS1 protein, % degradation relative to DMSO control) (SOS1)
0.93	0.66	0.41	0.72	2	CNCc1ccccc1-c1csc([C@H](C)Nc2nc(C)nc3cc(OCCCCCCC(=O)N4CCCCC4)c(OC)cc23)c1 [Compound A69, (S)-7-((6-Methoxy-2-methyl-4-((1-(4-(2-((methylamino)methyl)phenyl)thiophen-2-yl)ethyl)amino)quinazolin-7-yl)oxy)-1-(piperidin-1-yl)heptan-1-one]	–	–
1.7	1.3	1	0.69	3.5	CNCc1ccccc1-c1csc([C@@H](C)Nc2nc(C)nc3cc(OC)c(OC)cc23)c1 [reference compound]	–	–
